This is an account of results in paper PMC4956498 (Planta medica, 2016).

Where two headings read alike, the source gives them in different places. Bounds are passed on as bounds.

Series [1] deals with quinone reductase. Description: Quinone reductase induction assay in Hepa 1c1c7 cells. The class given is cell-based, mouse. As to conditions: for CD, concentration required to double quinone reductase activity: 48 h.
Series [2] concerns Hepa 1c1c7 cells. The series is described as follows: Cytotoxicity against Hepa 1c1c7 cells. It is filed as cell-based, mouse. As to conditions: read-out: IC50, concentration that inhibits 50% cell growth.
Series [3] addresses K-Ras (Homo sapiens, UniProt P01116). Description: K-Ras inhibition assay in HT-29 cells. It is filed as cell-based. As to conditions: for IC50: read-out: K-Ras inhibition IC50.
In series [4] the target is p65 subunit of NF-κB (Homo sapiens, UniProt Q04206). Description: cell-based. The class given is cell-based.
A short description of series [5]: in vitro. As to conditions: human.
Series [6] deals with mice. As to conditions: cited from earlier work; for LD50, acute toxicity to mice: ip administration.
Series [7] has as its system CCD-112CoN human normal colon cell line. As to conditions: cited from earlier work.
Series [8] deals with quinone reductase. As to conditions: in vitro; cited from earlier work.
[9] abbreviates: read-out: NF-κB p65 inhibition IC50, in HeLa cells.

p65 subunit of NF-κB, sequence (Q04206 whole entry): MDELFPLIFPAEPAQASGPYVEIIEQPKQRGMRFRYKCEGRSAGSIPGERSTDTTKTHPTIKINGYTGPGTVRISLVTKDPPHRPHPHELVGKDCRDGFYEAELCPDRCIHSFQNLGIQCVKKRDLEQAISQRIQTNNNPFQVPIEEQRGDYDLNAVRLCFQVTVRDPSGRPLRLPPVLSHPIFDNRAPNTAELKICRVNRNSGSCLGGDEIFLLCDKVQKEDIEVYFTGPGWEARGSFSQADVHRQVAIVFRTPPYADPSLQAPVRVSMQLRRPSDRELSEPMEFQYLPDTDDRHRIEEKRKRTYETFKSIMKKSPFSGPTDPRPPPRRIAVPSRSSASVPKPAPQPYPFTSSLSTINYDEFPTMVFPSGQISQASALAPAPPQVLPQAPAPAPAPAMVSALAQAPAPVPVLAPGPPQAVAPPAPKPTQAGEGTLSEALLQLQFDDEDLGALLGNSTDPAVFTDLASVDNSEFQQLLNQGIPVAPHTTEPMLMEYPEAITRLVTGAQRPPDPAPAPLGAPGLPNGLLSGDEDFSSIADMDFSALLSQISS

Consider `COC1=CC2=C(O[C@H]3COc4cc5c(cc4[C@@]3(O)C2=O)OCO5)C(CC=C(C)C)(CC=C(C)C)C1=O` (relative stereo) [Compound 3, (6aS,12aS)-rel-6a,12a-dihydro-12a-hydroxy-10-methoxy-8,8-bis(3-methyl-2-buten-1-yl)-[1]benzopyrano[2,3-c]-1,3-dioxolo[4,5-g][1] benzopyran-9,12(6H, 8H)-dione], for which, in series [1], the “CI, chemopreventive index (IC50/CD)” value is listed as more than 16.8 and the “CD, concentration required to double quinone reductase activity” value (shortened to “CD … to double quinone reductase activity”) was found to be 2.4 µM. For the same compound, the IC50 in series [2] (Hepa 1c1c7 cell line, 48 h) was more than 40 µM.
With `COc1cc2c(cc1OC)C1(O)C(=O)c3c(O)cc4c(c3OC1CO2)C=CC(C)(C)O4` (single isomer, unassigned; (+)) [Compound 11, (+)-3-hydroxy-α-toxicarol], the “CD … to double quinone reductase activity” value in series [1] is 6.6 µM. The IC50 in series [2] (Hepa 1c1c7 cell line, 48 h) is more than 40 µM. Further, in series [3], the “K-Ras inhibitory activity (in words)” value is “inactive”.
As to `COc1cc2c(c3c1OC(C)(C)C=C3)O[C@H]1COc3cc4c(cc3[C@@]1(O)C2=O)OCO4` [Compound 1, (5aS ,12bS)-5a,12b-dihydro-12b-hydroxy-15-methoxy-2,2-dimethyl-2H-[1, 3]dioxolo[4,5-g]pyrano[2,3-c:6,5-f ‘]bis[1]benzopyran-13(6H)-one], the IC50 in series [4] (setting [9]) was more than 10 µM; in series [2] (Hepa 1c1c7 cell line, 48 h), more than 40 µM; in series [3], 9.4 µM. Also, the “CD … to double quinone reductase activity” value in series [1] was found to be 19.8 µM.
In the case of `COc1cc2c(c3c1OC(C)(C)C=C3)O[C@H]1COc3cc4c(cc3[C@H]1C2=O)OCO4` [Compound 2, (5aR, 12bR)-5a,12b-dihydro-15-methoxy-2,2-dimethyl-2H-[1, 3]dioxolo[4,5-g]pyrano[2,3-c:6,5-f'] bis[1]benzopyran-13(6H)-one], in series [1], the “CI, chemopreventive index (IC50/CD)” value stood at 8.1 and the “CD … to double quinone reductase activity” value amounted to 2.2 µM. For the same compound, the IC50 in series [2] (Hepa 1c1c7 cell line, 48 h) was determined as 17.8 µM.
As to `C=C(C)[C@H]1Cc2c(ccc3c2O[C@@H]2COc4cc(OC)c(OC)cc4[C@@H]2C3=O)O1` [Compound 7, (−)-rotenone], in series [5], the IC50 at 3 days worked out at 0.3 µM. Further, in series [4], the IC50 was more than 10 µM. Besides, the “LD50, acute toxicity to mice” value in series [6] is given as 2.5 mg/kg. The “Cytotoxicity against the CCD-112CoN human normal colon cell line (in words)” value in series [7] is reported as “lack of cytotoxicity”.
For `COc1cc2c(cc1-c1coc3c4c(c(OC)cc3c1=O)OC(C)(C)C=C4)OCO2` [Compound 8, ichthynone], the IC50 in series [5] was more than 10 µM; in series [4], more than 10 µM; in series [2] (Mus musculus, Hepa-1c1c7, 48 h), 35 µM. In series [1], the “CI, chemopreventive index (IC50/CD)” value came to 19.4. For the same compound, the “CD … to double quinone reductase activity” value in series [1] is 1.8 µM.
With `C[S@@+]([O-])CCCCN=C=S` [L-sulforaphane, reference compound], in series [1], the “CI, chemopreventive index (IC50/CD)” value turned out to be 40.8 and the “CD … to double quinone reductase activity” value was determined as 0.51 µM. Besides, in series [2] (Mus musculus, Hepa-1c1c7, 48 h), the IC50 was determined as 20.9 µM.
Take `COc1cc2c(cc1OC)[C@@H]1C(=O)c3ccc4c(c3O[C@@H]1CO2)C=CC(C)(C)O4` [deguelin, reference compound]: in series [6], the “LD50, acute toxicity to mice” value is 5.0 mg/kg.
With (−)-3-hydroxyrotenone [Compound 6], the IC50 was determined as 5.3 µM in series [4] (setting [9]) and 3.1 µM in series [3]. Also, in series [6] (dose of 5 mg/kg (ip)), the Lethality to mice result is “lethal”. For the same compound, the “Cytotoxicity against the CCD-112CoN human normal colon cell line (in words)” value in series [7] is reported as “lack of cytotoxicity”.
Consider caeruleanone C, for which the “Quinone reductase (QR) induction (in words)” value in series [8] was “potently induce”.
